From US20090182003A1, “Methods and Compositions for Treatment Cell Proliferative Disorders” (President and Fellows of Harvard College, priority 2006, published 2009)
pIC50: −log10 of the molar value.

Legend:
human JAK2 = human JAK2 (Homo sapiens, UniProt O60674); experiment: Kinase panel screen, JAK2; format: biochemical; settings: kinase reaction with 10 or 100 μM ATP
human pim-2 = human pim-2 (Homo sapiens, UniProt Q9P1W9); experiment: Kinase panel screen, Pim-2; format: biochemical; settings: kinase reaction with 10 or 100 μM ATP
Sequence of human pim-2 (Q9P1W9 whole entry): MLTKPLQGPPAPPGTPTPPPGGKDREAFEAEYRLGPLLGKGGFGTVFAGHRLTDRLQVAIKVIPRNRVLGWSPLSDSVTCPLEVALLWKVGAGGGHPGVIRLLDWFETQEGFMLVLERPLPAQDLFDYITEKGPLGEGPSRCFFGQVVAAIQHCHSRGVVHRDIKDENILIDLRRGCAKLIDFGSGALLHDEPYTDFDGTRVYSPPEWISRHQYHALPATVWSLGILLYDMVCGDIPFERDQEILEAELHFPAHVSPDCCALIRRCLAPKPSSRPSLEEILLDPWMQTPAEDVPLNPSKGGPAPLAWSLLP

Rsk2 = Rsk2 (Homo sapiens, UniProt P51812); experiment: Kinase panel screen, Rsk2; format: biochemical; settings: 20 μM resveratrol
Sequence of Rsk2 (P51812 whole entry): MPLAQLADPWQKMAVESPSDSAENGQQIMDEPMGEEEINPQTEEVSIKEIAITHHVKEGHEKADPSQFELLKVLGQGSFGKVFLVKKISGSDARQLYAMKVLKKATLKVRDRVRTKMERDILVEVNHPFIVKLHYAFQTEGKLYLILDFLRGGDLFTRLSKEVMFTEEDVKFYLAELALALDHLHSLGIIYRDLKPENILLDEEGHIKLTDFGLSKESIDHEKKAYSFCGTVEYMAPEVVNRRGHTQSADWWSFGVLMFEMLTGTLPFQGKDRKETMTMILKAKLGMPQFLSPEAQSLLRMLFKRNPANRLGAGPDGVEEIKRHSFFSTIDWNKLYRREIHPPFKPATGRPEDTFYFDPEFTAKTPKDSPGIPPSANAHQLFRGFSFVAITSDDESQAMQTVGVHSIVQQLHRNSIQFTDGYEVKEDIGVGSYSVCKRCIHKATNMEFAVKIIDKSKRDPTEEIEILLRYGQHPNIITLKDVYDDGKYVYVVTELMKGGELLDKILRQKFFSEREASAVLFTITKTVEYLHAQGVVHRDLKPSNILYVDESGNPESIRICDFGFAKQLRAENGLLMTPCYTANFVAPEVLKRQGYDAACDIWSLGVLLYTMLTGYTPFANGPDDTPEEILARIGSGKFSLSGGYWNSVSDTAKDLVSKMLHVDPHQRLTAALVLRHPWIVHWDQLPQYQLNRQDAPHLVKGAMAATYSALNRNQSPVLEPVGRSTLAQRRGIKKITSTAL

human p70S6K = human p70S6K (Homo sapiens, UniProt P23443); experiment: Kinase panel screen, p70S6K; format: biochemical; settings: 10 or 100 μM ATP; 0.01-100 μM resveratrol
Sequence of human p70S6K (P23443 whole entry): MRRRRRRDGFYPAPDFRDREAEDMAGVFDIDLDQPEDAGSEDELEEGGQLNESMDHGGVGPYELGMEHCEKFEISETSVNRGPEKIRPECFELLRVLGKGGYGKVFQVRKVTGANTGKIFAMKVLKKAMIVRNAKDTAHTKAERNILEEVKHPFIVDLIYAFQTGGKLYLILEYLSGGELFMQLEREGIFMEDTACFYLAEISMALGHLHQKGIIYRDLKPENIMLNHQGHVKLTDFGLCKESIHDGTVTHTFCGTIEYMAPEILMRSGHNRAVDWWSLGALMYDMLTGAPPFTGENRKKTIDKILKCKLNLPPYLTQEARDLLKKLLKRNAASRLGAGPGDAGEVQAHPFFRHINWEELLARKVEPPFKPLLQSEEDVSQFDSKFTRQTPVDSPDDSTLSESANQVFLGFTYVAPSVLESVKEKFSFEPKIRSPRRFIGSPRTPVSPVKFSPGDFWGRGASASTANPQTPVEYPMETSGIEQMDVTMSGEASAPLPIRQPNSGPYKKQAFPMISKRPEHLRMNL

NLK = biological target: T1, NLK (Homo sapiens, UniProt Q9UBE8); experiment: Kinase panel screen, NLK; format: biochemical; settings: 10 μM ATP; 0.01-100 μM resveratrol
T1 sequence (Q9UBE8 1-527): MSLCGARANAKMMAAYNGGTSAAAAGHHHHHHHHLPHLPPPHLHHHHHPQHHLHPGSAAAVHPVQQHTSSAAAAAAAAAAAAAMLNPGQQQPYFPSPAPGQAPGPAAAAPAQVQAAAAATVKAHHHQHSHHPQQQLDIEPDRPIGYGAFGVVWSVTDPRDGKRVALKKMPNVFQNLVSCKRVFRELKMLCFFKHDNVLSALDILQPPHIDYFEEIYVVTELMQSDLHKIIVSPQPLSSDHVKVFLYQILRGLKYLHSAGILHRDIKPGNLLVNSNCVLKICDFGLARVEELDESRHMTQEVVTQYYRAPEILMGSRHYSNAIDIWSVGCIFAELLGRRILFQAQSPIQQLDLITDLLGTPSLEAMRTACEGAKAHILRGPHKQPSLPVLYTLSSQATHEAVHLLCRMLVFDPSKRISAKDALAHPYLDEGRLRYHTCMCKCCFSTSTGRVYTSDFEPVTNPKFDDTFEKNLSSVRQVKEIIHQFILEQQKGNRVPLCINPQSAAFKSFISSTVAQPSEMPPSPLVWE

Src = Src (Homo sapiens, UniProt P12931); experiment: Kinase panel screen, Src; format: biochemical; settings: concentration of 20 micromolar
Sequence of Src (P12931 whole entry, species assumed): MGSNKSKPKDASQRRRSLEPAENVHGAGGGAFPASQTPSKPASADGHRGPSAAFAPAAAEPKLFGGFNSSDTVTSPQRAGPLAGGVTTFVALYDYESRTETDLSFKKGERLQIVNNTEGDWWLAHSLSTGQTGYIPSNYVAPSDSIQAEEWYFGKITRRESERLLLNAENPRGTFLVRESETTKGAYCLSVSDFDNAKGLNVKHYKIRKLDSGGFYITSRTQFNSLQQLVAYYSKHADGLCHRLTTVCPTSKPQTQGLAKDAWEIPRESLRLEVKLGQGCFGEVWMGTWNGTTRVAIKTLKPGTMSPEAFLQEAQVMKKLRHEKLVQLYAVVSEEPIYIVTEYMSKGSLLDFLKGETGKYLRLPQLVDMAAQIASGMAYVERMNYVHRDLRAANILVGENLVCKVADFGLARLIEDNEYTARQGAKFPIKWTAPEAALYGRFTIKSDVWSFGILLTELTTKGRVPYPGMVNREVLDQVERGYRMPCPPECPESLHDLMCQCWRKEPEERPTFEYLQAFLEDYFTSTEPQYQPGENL

FL5.12 cells = experiment: Growth inhibition of hematopoietic cell line FL5.12; format: cell-based; settings: 0.1, 1, 10 and 100 μM, 24 hours, in the presence of IL-3, Coulter cell count
Method: Hematopoietic cell line FL5.12 cells were seed at equal density and grown in the presence of IL-3, a growth factor. Cells were then treated for 24 hours with 0.1, 1, 10 and 100 μM resveratrol. Cells were counted with a Coulter particle counter to determine cell inhibition by resveratrol.

PKC = experiment: Kinase panel screen, PKC; settings: concentration of 20 micromolar
PI3K = experiment: Kinase panel screen, PI3K; settings: concentrations up to 20 micromolar

Sequence of human JAK2 (O60674 whole entry): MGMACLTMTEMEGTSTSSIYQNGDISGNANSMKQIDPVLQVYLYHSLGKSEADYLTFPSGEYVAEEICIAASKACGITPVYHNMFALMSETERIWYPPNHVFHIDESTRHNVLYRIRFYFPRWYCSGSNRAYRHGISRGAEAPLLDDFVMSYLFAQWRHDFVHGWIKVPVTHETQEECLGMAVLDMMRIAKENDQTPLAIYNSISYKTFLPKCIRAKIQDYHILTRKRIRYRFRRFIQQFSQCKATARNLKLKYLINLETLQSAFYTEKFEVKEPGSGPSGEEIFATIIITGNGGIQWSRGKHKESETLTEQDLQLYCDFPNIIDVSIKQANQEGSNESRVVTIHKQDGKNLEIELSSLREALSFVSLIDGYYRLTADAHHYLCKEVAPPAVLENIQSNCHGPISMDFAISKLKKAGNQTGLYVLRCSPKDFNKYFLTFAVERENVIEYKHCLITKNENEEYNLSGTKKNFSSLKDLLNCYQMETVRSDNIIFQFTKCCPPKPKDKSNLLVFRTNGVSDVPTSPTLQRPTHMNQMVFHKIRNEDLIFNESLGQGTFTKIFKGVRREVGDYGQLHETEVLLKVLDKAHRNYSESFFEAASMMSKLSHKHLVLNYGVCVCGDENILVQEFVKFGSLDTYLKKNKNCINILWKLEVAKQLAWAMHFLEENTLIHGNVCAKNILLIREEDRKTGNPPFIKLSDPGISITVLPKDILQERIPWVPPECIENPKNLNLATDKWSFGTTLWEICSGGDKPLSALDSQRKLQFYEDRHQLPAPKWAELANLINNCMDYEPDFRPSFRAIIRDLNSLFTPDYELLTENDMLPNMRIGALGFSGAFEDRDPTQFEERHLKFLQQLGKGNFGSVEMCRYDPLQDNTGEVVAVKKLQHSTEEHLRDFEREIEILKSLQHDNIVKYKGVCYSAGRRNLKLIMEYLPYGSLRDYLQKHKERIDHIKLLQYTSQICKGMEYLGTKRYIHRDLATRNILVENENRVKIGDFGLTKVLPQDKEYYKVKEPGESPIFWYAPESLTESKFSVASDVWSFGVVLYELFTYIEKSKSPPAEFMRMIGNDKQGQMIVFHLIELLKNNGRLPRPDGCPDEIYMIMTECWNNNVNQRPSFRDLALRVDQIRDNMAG

- pIC50 (human JAK2): 5.83
- pIC50 (human pim-2): 5.83
- inhibition at 20 µM (Rsk2): ~68%
- Inhibition of p70S6K (in words) (human p70S6K): specific inhibitor
- Inhibition of NLK (in words) (NLK): specific inhibitor
- Inhibition of PI3K (in words) (PI3K): no inhibition
Structure (SMILES): Oc1ccc(C=Cc2cc(O)cc(O)c2)cc1 [resveratrol, 3,5, 4′-trihydroxystilbene]
- Inhibition of Src (in words) (Src): either not inhibited or only weakly inhibited
- Inhibition of FL5.12 cell growth (in words) (FL5.12 cells): dose dependent inhibition
- Inhibition of PKC (in words) (PKC): either not inhibited or only weakly inhibited
